Test results from ChEMBL document CHEMBL1148718, “Structure-activity relationship study on N-(1,2,3,4-tetrahydronaphthalen-1-yl)-4-aryl-1-piperazinehexanamides, a class of 5-HT7 receptor agents. 2” (J Med Chem, 2007).

How the values were obtained:
[1] = target: T1, 5-hydroxytryptamine receptor 7 (Cavia porcellus, UniProt P50407); test: (§1) Agonist activity at 5HT7 receptor in guinea pig ileum assessed as relaxation of substance P-induced contraction; format: functional, tissue-based
[2] = target: 5-hydroxytryptamine receptor 7 (Cavia porcellus) (UniProt P50407); test: as §1; format: functional, tissue-based
5-hydroxytryptamine receptor 7 (Cavia porcellus), sequence (P50407 whole entry): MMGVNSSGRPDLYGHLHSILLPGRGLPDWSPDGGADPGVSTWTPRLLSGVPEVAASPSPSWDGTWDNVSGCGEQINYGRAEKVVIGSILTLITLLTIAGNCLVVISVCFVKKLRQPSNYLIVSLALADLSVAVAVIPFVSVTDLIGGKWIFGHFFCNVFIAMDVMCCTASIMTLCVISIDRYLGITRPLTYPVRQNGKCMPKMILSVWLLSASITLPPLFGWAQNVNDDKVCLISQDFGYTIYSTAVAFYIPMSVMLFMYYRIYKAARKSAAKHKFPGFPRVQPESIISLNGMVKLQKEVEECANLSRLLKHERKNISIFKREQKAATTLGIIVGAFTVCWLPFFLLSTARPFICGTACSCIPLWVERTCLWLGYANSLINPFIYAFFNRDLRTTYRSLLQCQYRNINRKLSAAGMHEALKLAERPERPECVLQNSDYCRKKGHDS

D(2) dopamine receptor [3] = target: T2, D(2) dopamine receptor (Homo sapiens, UniProt P14416); test: Displacement of [3H]spiroperidol from human recombinant Dopamine D2 long receptor
T2 sequence (P14416 whole entry): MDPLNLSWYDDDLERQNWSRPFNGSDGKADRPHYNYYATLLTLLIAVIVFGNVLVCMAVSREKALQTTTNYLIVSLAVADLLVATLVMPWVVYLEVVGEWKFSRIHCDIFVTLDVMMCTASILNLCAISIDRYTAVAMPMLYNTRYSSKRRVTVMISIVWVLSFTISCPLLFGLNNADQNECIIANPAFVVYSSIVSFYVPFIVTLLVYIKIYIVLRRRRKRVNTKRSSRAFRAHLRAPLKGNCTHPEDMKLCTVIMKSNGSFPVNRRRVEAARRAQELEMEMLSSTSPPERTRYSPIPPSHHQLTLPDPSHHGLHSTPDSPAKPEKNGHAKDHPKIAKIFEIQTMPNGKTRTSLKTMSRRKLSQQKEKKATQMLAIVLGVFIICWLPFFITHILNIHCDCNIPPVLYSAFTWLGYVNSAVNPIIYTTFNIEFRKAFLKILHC

[4] = target: 5-hydroxytryptamine receptor 2A (Rattus norvegicus, UniProt P14842); test: Displacement of [3H]ketanserin from 5HT2A receptor in Sprague-Dawley cortex membrane; format: cell membranes
5-hydroxytryptamine receptor 2A, sequence (P14842 whole entry): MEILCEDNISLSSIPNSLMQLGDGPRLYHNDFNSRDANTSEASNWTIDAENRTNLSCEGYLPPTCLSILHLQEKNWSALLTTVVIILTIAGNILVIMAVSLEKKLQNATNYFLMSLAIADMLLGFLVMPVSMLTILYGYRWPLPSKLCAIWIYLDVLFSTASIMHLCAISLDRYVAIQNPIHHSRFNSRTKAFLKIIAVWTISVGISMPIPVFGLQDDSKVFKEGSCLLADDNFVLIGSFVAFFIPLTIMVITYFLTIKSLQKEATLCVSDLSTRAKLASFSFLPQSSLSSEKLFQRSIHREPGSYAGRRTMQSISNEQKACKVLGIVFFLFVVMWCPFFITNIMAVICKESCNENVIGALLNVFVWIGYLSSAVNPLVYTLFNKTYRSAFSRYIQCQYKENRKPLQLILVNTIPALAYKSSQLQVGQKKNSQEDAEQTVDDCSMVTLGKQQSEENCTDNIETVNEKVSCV

[5] = target: 5-hydroxytryptamine receptor 7 (Rattus norvegicus, UniProt P32305); test: Displacement of [3H]LSD from rat recombinant 5HT7 receptor expressed in HEK293 cells; format: cell-based
5-hydroxytryptamine receptor 7 (Rattus norvegicus, UniProt P32305), sequence (P32305 whole entry): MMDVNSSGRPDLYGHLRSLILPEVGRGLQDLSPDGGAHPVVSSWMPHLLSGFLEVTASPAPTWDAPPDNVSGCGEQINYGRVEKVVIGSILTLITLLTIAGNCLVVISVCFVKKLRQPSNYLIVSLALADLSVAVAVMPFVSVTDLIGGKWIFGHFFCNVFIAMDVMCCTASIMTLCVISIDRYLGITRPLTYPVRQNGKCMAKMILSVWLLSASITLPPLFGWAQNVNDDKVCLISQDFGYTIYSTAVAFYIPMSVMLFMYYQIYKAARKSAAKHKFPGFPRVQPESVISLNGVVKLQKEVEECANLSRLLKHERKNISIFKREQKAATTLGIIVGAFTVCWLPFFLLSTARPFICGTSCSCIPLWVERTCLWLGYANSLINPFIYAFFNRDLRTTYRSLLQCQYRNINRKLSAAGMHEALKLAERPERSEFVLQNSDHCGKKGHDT

[6] = Selectivity for rat 5HT7 over human 5HT1A
[7] = target: T3, 5-hydroxytryptamine receptor 1A (Homo sapiens, UniProt P08908); test: Displacement of [3H]8-OH-DPAT from human recombinant 5HT1A receptor expressed in HEK293 cells; format: cell-based
T3 sequence (P08908 whole entry): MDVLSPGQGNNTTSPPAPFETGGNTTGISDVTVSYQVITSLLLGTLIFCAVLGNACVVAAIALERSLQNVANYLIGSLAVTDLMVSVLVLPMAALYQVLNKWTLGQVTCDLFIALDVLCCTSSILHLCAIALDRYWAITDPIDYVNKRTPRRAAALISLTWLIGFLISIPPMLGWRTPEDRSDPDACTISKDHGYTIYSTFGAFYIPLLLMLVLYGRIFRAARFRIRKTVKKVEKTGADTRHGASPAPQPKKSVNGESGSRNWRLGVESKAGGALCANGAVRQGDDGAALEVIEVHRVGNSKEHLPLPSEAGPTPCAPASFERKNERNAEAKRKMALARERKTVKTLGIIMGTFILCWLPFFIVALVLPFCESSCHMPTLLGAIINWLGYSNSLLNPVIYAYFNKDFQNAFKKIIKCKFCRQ

D(2) dopamine receptor [8] = target: T2, D(2) dopamine receptor; test: Displacement of [3H]spiroperidol from human recombinant Dopamine D2 long receptor […]
[9] = Ratio of Ki for human Dopamine D2L receptor to Ki for rat 5HT7 receptor
[10] = target: 5-hydroxytryptamine receptor 2A (Rattus norvegicus) (UniProt P14842); test: Displacement of [3H]ketanserin from 5HT2A receptor in Sprague-Dawley cortex membrane at >4000 uM; format: cell membranes
5-hydroxytryptamine receptor 2A (Rattus norvegicus), sequence (P14842 whole entry): as the sequence (P14842 whole entry) above

[11] = target: T1, 5-hydroxytryptamine receptor 7; test: Antagonist activity at 5HT7 receptor in guinea pig ileum assessed as effect on substance P-induced contraction; format: functional, tissue-based; settings: read-out: pA2 (converted)
[12] = target: T1, 5-hydroxytryptamine receptor 7; test: Antagonist activity at 5HT7 receptor in guinea pig ileum assessed as effect on 6-(4-phenylpiperazin-1-yl)-N-(1,2,3,4-tetrahydronaphthalen-1-yl)hexanamide mediated relaxation of substance P-induced contraction; format: functional, tissue-based; settings: read-out: pA2 (converted)
[13] = target: T1, 5-hydroxytryptamine receptor 7; test: Antagonist activity at 5HT7 receptor in guinea pig ileum assessed as effect on 4-[2-(1-methylethyl)phenyl]-N-(1,2,3,4-tetrahydronaphthalen-1-yl)-1-piperazine hexanamide mediated relaxation of substance P-induced contraction; format: functional, tissue-based; settings: read-out: pA2 (converted)
[14] = target: T1, 5-hydroxytryptamine receptor 7; test: Antagonist activity at 5HT7 receptor in guinea pig ileum assessed as effect on 3-(2-aminoethyl)-1H-indole-5-carboxamide mediated relaxation of substance P-induced contraction; format: functional, tissue-based; settings: read-out: pA2 (converted)
[15] = target: T1, 5-hydroxytryptamine receptor 7; test: Antagonist activity at 5HT7 receptor in guinea pig ileum assessed as effect on 4-(2-dimethylaminophenyl)-N-(1,2,3,4-tetrahydronaphthalen-1-yl)-1-piperazine hexanamide mediated relaxation of substance P-induced contraction; format: functional, tissue-based; settings: read-out: pA2 (converted)
[16] = target: T1, 5-hydroxytryptamine receptor 7; test: Antagonist activity at 5HT7 receptor in guinea pig ileum assessed as effect on 4-(2-diphenyl)-N-(1,2,3,4-tetrahydronaphthalen-1-yl)-1-piperazine hexanamide mediated relaxation of substance P-induced contraction; format: functional, tissue-based; settings: read-out: pA2 (converted)
[17] = target: T1, 5-hydroxytryptamine receptor 7; test: Antagonist activity at 5HT7 receptor in guinea pig ileum assessed as effect on 6-(4-(2-chlorophenyl)piperazine-1-yl)-N-(1,2,3,4-tetrahydronaphthalen-1-yl)hexanamide mediated relaxation of substance P-induced contraction; format: functional, tissue-based; settings: read-out: pA2 (converted)
[18] = target: T1, 5-hydroxytryptamine receptor 7; test: Antagonist activity at 5HT7 receptor in guinea pig ileum assessed as effect on 6-(4-(2-nitrophenyl)piperazin-1-yl)-N-(1,2,3,4-tetrahydronaphthalen-1-yl)hexanamide mediated relaxation of substance P-induced contraction; format: functional, tissue-based; settings: read-out: pA2 (converted)

T1 sequence (P50407 whole entry): as the sequence (P50407 whole entry) above

SMILES	Ki (D(2) dopamine receptor [3]) [nM]	Ki [4] [nM]	Ki [5] [nM]	Ki [7] [nM]	also measured
O=C(CCCCCN1CCN(c2ccccc2Cl)CC1)NC1CCCc2ccccc21 (stereo not given)	51				EC50 [1]: 17000 nM; %max [2]: 13%
CN(C)c1ccccc1N1CCN(CCCCCC(=O)NC2CCCc3ccccc32)CC1 (stereo not given)	32	559	0.9	112	EC50 [1]: 1170 nM; %max [2]: 100%; Selectivity ratio [6]: > 100
O=C(CCCCCN1CCN(c2ccccc2)CC1)NC1CCCc2ccccc21 (stereo not given)	1000				EC50 [1]: 8000 nM; %max [2]: 40%
CC(C)(C)c1ccccc1N1CCN(CCCCCC(=O)NC2CCCc3ccccc32)CC1 (stereo not given)	> 1000		538	1200	inhibition (D(2) dopamine receptor [8]): 38%
O=C(CCCCCN1CCN(c2ccccc2-c2ccccc2)CC1)NC1CCCc2ccccc21 (stereo not given)	224	1460	0.13	60.9	EC50 [1]: 1770 nM; %max [2]: 74%; Ratio Ki [9]: 1720; Selectivity ratio [6]: > 100
CCCc1ccccc1N1CCN(CCCCCC(=O)NC2CCCc3ccccc32)CC1 (stereo not given)	123	3190	49.6	168	
N#Cc1ccccc1N1CCN(CCCCCC(=O)NC2CCCc3ccccc32)CC1 (stereo not given)	265				
CS(=O)(=O)c1ccccc1N1CCN(CCCCCC(=O)NC2CCCc3ccccc32)CC1 (stereo not given)	> 1000				inhibition (D(2) dopamine receptor [8]): 32%; inhibition [10]: 38%
CSc1ccccc1N1CCN(CCCCCC(=O)NC2CCCc3ccccc32)CC1 (stereo not given)	7.3				
Nc1ccccc1N1CCN(CCCCCC(=O)NC2CCCc3ccccc32)CC1 (stereo not given)			8180	415	
O=C(CCCCCN1CCN(c2cccc[n+]2[O-])CC1)NC1CCCc2ccccc21 (stereo not given)			8030	194	
NCCc1c[nH]c2ccc(C(N)=O)cc12			0.5		EC50 [1]: 630 nM; %max [2]: 100%
O=C(CCCCCN1CCN(c2ccccn2)CC1)NC1CCCc2ccccc21 (stereo not given)	> 1000	535	278	36.4	inhibition (D(2) dopamine receptor [8]): 15%
NC(=O)c1ccccc1N1CCN(CCCCCC(=O)NC2CCCc3ccccc32)CC1 (stereo not given)	> 1000				inhibition (D(2) dopamine receptor [8]): 32%; inhibition [10]: 9%
CC(=O)Nc1ccccc1N1CCN(CCCCCC(=O)NC2CCCc3ccccc32)CC1 (stereo not given)	> 1000	3520	338	2500	inhibition (D(2) dopamine receptor [8]): 35%
O=C(CCCCCN1CCN(c2ccccc2F)CC1)NC1CCCc2ccccc21 (stereo not given)	292	194	131	29.2	
CC(C)c1ccccc1N1CCN(CCCCCC(=O)NC2CCCc3ccccc32)CC1 (stereo not given)	15	4820	1.1	167	EC50 [1]: 900 nM; %max [2]: 83%; Selectivity ratio [6]: > 100
O=C(CCCCCN1CCN(c2ccccc2[N+](=O)[O-])CC1)NC1CCCc2ccccc21 (stereo not given)	681				EC50 [1]: 10000 nM; %max [2]: 24%
CCCCc1ccccc1N1CCN(CCCCCC(=O)NC2CCCc3ccccc32)CC1 (stereo not given)	60		2810	60	
CC(=O)c1ccccc1N1CCN(CCCCCC(=O)NC2CCCc3ccccc32)CC1 (stereo not given)	68				
CNc1ccccc1N1CCN(CCCCCC(=O)NC2CCCc3ccccc32)CC1 (stereo not given)	107	1590	25.4	133	%max [2]: 0%; Kb [11]: 20 nM
O=C(CCCCCN1CCN(c2ccccc2O)CC1)NC1CCCc2ccccc21 (stereo not given)	987				
CC1CCN(CC[C@H]2CCCN2S(=O)(=O)c2cccc(O)c2)CC1					Kb [12]: 7.94 nM; Kb [13]: 8.91 nM; Kb [14]: 33.1 nM; Kb [15]: 12.6 nM; Kb [16]: 14.5 nM; Kb [17]: 3.98 nM; Kb [18]: 6.31 nM
Cc1ccccc1N1CCN(CCCCCC(=O)NC2CCCc3ccccc32)CC1 (stereo not given)	143				
CCc1ccccc1N1CCN(CCCCCC(=O)NC2CCCc3ccccc32)CC1 (stereo not given)	173	3370	7.1	79.2	
COc1ccccc1N1CCN(CCCCCC(=O)NC2CCCc3ccccc32)CC1 (stereo not given)	26.4				
CS(=O)(=O)Nc1ccccc1N1CCN(CCCCCC(=O)NC2CCCc3ccccc32)CC1 (stereo not given)	> 1000		4250		inhibition (D(2) dopamine receptor [8]): 28%
